US8664391B2, “Amide compounds as boosters of antivirals” (Janssen R&D Ireland Ltd, priority 2008, dated 2014)
Like-named read-outs stand apart in the source and are kept apart here.

Legend:
CYP2D6 = biological target: T1, CYP2D6 (Homo sapiens, UniProt P10635); assay: CYP450 inhibition, fluorescent substrate assay, CYP2D6; type: biochemical; settings: E. coli expressed CYP2D6, pH 7.4, probe AMMC (3 μM), 10 μM test compound, substrate AMMC 3 μM, read-out: 2D6-AMMC % inh.
T1 construct: host or cells: E. coli
Protocol: (§1) Assay 4: CYP450 Inhibition […] This fluorescent molecule was measured using a fluorescent plate reader (Victor2 (Wallac) or Fluoroskan (Labsystems)). Compounds inhibiting the enzymatic reaction will result in a decrease of fluorescent signal. CYP P450 enzymes were prepared in house or commercially bought and stored at −80° C. [table] The assay was performed in black 96 well Costar plates. Test compounds were added to a CYP P450 enzyme solution in the presence of an NADPH generating system. After 5 min of preincubation at 37° C., the freshly prepared, phosphate buffered (pH 7.4) substrate solution was added. Known CYP P450 inhibitors were used as positive controls, negative controls were run without CYP P450 enzyme. For final reaction mixture concentrations, see Table 6. […] Then, the reaction was stopped by the addition of 200 μl acetonitrile, and the fluorescent signal was detected. [table] […] Inhibition of TMC114 Metabolisation

[1] = Cytotoxicity in mock-infected MT4 CMV-EGFP cells; type: cell-based; settings: human, pCC50 = -log10(CC50), read-out: Toxicity MT4 pCC50 (converted)
Description: (§2) Assay 1 &2: Antiviral Activity/Toxicity
Analogously, MT4 cells are engineered with GFP and the constitutional cytomegalovirus (CMV) promotor. This cell line is designated MT4 CMV-EGFP, and can be used for the in vitro evaluation of cytotoxicity of investigational compounds. In this cell line, GFP levels are comparably to those of infected MT4 LTR-EGFP cells. Cytotoxic investigational compounds reduce GFP levels of mock-infected MT4 CMV-EGFP cells.
Effective concentration values such as 50% effective concentration (EC50) can be determined and are usually expressed in μM. An EC50 value is defined as the concentration of test compound that reduces the fluorescence of HIV-infected cells by 50%. The 50% cytotoxic concentration (CC50 in μM) is defined as the concentration of test compound that reduces fluorescence of the mock-infected cells by 50%. The ratio of CC50 to EC50 is defined as the selectivity index (SI) and is an indication of the selectivity of the anti-HIV activity of the inhibitor. The ultimate monitoring of HIV-1 infection and cytotoxicity is done using a scanning microscope. Image analysis allows very sensitive detection of viral infection. Measurements are done before cell necrosis, which usually takes place about five days after infection, in particular measurements are performed three days after infection.
Table 2 lists pEC50 values against the wild-type HIV-1 IIIB strain as well as pCC50 values for a selected number of compounds of the invention. A pEC50 value corresponds to −log10(EC50). A pCC50 value corresponds to −log10(CC50).

CYP1A2 = biological target: T2, CYP1A2 (Homo sapiens, UniProt P05177); assay: CYP450 inhibition, fluorescent substrate assay, CYP1A2; type: biochemical; settings: E. coli expressed CYP1A2, pH 7.4, probe CEC (5 μM), 10 μM test compound, substrate CEC 5 μM, read-out: 1A2-CEC % inh.
T2 construct: host or cells: E. coli
T2 sequence (P05177 1-516): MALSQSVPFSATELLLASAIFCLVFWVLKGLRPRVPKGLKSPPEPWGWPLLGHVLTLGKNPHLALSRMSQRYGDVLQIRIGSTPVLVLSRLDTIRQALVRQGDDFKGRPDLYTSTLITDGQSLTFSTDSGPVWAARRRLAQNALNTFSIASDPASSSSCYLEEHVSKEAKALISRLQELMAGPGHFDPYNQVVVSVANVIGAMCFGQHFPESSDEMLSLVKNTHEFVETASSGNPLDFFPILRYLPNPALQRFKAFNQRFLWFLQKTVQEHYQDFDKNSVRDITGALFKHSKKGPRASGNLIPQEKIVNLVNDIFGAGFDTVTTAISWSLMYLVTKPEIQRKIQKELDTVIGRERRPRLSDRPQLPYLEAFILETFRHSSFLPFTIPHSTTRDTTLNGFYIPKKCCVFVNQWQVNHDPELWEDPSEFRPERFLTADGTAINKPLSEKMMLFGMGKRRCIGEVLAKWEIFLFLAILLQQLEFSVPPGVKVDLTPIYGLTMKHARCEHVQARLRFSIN
Protocol: as §1

CYP3A4 = biological target: T3, CYP3A4 (Homo sapiens, UniProt P08684); assay: CYP450 inhibition, fluorescent substrate assay, CYP3A4; type: biochemical; settings: 10 μM test compound; for inhibition at 10 min, 10 μM: E. coli expressed CYP3A4, pH 7.4, probe DBF (1 μM), substrate DBF 1 μM, read-out: 3A4-DBF % inh.
T3 construct: host or cells: E. coli
Protocol: as §1

[2] = system: wild-type HIV-1 IIIB strain; assay: Antiviral activity in MT4 LTR-EGFP cellular assay; type: cell-based; settings: Human immunodeficiency virus 1, 72 h; wild-type HIV-1 IIIB, MT4 LTR-EGFP cells, three days after infection; pEC50 = -log10(EC50); read-out: Antiviral Activity IIIB pEC50 (converted)
Protocol: as §2
The compounds of the present invention were tested for antiviral activity in a cellular assay, which was performed according to the following procedure.
The human T-cell line MT4 is engineered with Green Fluorescent Protein (GFP) and an HIV-specific promoter, HIV-1 long terminal repeat (LTR). This cell line is designated MT4 LTR-EGFP, and can be used for the in vitro evaluation of anti-HIV activity of investigational compounds. In HIV-1 infected cells, the Tat protein is produced which upregulates the LTR promotor and finally leads to stimulation of the GFP reporter production, allowing measuring ongoing HIV-infection fluorometrically.
The ratio of CC50 to EC50 is defined as the selectivity index (SI) and is an indication of the selectivity of the anti-HIV activity of the inhibitor. The ultimate monitoring of HIV-1 infection and cytotoxicity is done using a scanning microscope. Image analysis allows very sensitive detection of viral infection. Measurements are done before cell necrosis, which usually takes place about five days after infection, in particular measurements are performed three days after infection.
A pEC50 value corresponds to −log10(EC50). A pCC50 value corresponds to −log10(CC50).

CYP2C9 = CYP2C9 (Homo sapiens, UniProt P11712); assay: CYP450 inhibition, fluorescent substrate assay, CYP2C9; type: biochemical; settings: pH 7.4
Protocol: as §1

in vitro = in vitro ADME, human; settings: human, pH 7.4
Description: Assay 3: Metabolic Stability of Test Compounds (HLM15′)
Sub-cellular tissue preparations are made according to Gorrod et al. (Xenobiotica, 5, pp. 453-462 (1975)) by centrifugal separation after mechanical homogenization of tissue. Human liver tissue is rinsed in ice-cold 0.1 M Tris-HCl (pH 7.4) buffer to wash excess blood. Tissue is then blotted dry, weighed and chopped coarsely using surgical scissors. The tissue pieces are homogenized in 3 volumes of ice-cold 0.1 M phosphate buffer (pH 7.4) using either a Potter-S (Braun, Italy) equipped with a Teflon pestle or a Sorvall Omni-Mix homogenizer, for 7×10 sec. In both cases, the vessel is kept in/on ice during the homogenization process. Tissue homogenates are centrifuged at 9000×g for 20 min at 4° C. using a Sorvall centrifuge or Beckman Ultracentrifuge. The resulting supernatant can be stored at −80° C. and is designated ‘S9’. The S9 fraction is centrifuged at 100,000×g for 60 min at 4° C. using a Beckman ultracentrifuge. The resulting supernatant is carefully aspirated, aliquoted and designated ‘cytosol’. The pellet is re-suspended in 0.1 M phosphate buffer (pH 7.4) in a final volume of 1 ml per 0.5 g original tissue weight and designated ‘microsomes’. All sub-cellular fractions are aliquoted, immediately frozen in liquid nitrogen and stored at −80° C. until use.
Heat-inactivated (10 min at 95° C.) ‘S9’ or microsomes were used for blank experiments. Reaction mixtures were incubated at 37° C. for 5 min, after which the reaction was started by the addition of 0.8 mM β-NADP. The reaction was incubated for 0 or 15 min. Next, the reaction was stopped by addition of 2 volumes of DMSO (or acetonitrile). Samples were centrifuged (10 min, 900×g) and analyzed by LC-MS.

CYP2C19 = biological target: T4, CYP2C19 (Homo sapiens, UniProt P33261); assay: CYP450 inhibition, fluorescent substrate assay, CYP2C19; type: biochemical; settings: E. coli expressed CYP2C19, pH 7.4, probe CEC (25 μM), 10 μM test compound, substrate CEC 25 μM, read-out: 2C19-CEC % inh.
T4 construct: host or cells: E. coli
Protocol: as §1

[3] = E. coli expressed CYP3A4, pH 7.4, probe BFC (150 μM), substrate BFC 150 μM, read-out: 3A4-BFC % inh.
[4] = E. coli expressed CYP3A4, pH 7.4, probe BQ (60 μM), substrate BQ 60 μM, read-out: 3A4-BQ % inh.

T4 sequence (P33261 whole entry): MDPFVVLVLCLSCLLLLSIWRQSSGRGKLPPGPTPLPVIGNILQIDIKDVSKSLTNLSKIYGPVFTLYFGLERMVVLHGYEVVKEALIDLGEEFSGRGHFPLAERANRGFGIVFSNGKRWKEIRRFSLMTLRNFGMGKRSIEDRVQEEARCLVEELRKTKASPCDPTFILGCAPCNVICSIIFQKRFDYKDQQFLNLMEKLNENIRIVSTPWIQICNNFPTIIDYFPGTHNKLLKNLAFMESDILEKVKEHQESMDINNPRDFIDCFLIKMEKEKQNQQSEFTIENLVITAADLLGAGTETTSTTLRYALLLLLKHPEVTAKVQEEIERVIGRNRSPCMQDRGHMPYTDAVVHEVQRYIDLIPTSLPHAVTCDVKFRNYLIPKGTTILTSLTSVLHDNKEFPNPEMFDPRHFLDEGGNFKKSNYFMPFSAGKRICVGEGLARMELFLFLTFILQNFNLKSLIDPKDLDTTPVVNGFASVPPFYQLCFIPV
T1 sequence (P10635 whole entry): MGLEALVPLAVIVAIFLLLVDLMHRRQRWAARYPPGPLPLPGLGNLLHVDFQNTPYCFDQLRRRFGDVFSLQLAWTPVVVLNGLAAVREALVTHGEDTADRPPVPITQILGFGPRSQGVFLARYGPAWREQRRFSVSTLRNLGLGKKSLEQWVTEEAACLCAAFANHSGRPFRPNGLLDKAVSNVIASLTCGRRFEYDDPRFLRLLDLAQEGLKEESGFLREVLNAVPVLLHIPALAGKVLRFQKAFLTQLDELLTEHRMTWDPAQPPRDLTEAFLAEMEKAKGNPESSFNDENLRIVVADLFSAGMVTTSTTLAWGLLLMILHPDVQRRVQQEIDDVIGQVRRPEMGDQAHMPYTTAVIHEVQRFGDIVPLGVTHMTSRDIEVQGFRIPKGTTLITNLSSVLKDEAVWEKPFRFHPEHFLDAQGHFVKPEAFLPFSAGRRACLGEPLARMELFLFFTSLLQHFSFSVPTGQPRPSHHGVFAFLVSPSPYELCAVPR
T3 sequence (P08684 whole entry): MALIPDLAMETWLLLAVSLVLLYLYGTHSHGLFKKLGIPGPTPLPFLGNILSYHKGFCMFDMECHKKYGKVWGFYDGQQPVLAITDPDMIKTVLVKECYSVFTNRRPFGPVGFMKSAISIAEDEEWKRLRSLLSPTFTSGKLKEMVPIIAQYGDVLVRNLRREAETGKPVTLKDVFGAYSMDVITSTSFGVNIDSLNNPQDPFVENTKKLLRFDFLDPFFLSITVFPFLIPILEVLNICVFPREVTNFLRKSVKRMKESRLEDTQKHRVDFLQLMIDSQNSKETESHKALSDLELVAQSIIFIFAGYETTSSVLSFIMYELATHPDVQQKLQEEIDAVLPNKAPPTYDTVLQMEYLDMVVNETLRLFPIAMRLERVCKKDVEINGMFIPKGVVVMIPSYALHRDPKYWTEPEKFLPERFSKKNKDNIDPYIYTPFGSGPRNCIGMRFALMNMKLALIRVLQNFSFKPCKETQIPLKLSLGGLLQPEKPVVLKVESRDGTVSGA
Chain of CYP2C9 (P11712 whole entry): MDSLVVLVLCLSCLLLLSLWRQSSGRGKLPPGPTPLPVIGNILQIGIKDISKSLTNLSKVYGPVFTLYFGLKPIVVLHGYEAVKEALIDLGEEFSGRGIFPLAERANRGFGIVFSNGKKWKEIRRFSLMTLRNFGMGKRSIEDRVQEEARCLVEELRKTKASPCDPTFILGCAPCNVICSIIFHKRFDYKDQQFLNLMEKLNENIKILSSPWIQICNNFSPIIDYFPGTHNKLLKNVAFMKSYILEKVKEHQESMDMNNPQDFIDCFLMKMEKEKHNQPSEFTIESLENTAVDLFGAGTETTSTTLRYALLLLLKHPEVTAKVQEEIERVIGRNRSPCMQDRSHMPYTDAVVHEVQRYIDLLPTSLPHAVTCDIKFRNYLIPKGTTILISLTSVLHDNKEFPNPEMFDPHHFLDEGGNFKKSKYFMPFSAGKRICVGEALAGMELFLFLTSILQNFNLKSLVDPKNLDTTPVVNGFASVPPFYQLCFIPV

Row | Compound | inhibition at 45 min, 10 μM (CYP2D6) [%] | CC50 at 3 days [1] [µM] | inhibition at 15 min, 10 μM (CYP1A2) [%] | inhibition at 30 min, 10 μM (CYP3A4; [3]) [%] | inhibition at 30 min, 10 μM (CYP3A4; [4]) [%] | inhibition at 10 min, 10 μM (CYP3A4) [%] | EC50 [2] [µM] | inhibition at 30 min, 10 μM (CYP2C9) [%] | recovery at 15 min, 5 μM (in vitro) [%] | inhibition at 30 min, 10 μM (CYP2C19) [%]
1 | CC(C)CN(C[C@@H](O)[C@H](Cc1ccccc1)NC(=O)OCc1cncs1)C(=O)c1ccncc1 [Compound C8] | 39 | > 100 | 4 | 91 | 79 | 91 | > 100 | 95 | 81 | 76
2 | CC(C)CN(C[C@@H](O)[C@H](Cc1ccccc1)NC(=O)OCc1cncs1)C(=O)c1ccccn1 [Compound C9] | 66 | > 100 | 4 | 91 | 78 | 89 | > 100 | 85 | 55 | 64
3 | Cc1cccc(C(=O)N(CC(C)C)C[C@@H](O)[C@H](Cc2ccccc2)NC(=O)OCc2cncs2)c1 [Compound C10] | 62 | > 100 | 33 | 95 | 79 | 93 | > 100 | 96 | 47 | 92
4 | CC(C)CN(C[C@@H](O)[C@H](Cc1ccccc1)NC(=O)OCc1cncs1)C(=O)c1cccc(C(F)(F)F)c1 [Compound C11] | 86 | 34.7 | 45 | 94 | 78 | 99 | 38 | 97 | 52 | 100
5 | CC(C)CN(C[C@@H](O)[C@H](Cc1ccccc1)NC(=O)OCc1cncs1)C(=O)c1cnc2ccccc2n1 [Compound C12, 1S-2R-{1-Benzyl-2-hydroxy-3-[isobutyl-(quinoxaline-2-carbonyl)-amino]-propyl}-carbamic acid thiazol-5-ylmethyl ester] | 0 | 61.7 | 21 | 70 | 79 | 93 | 60.3 | 92 | 67 | 81
6 | CC(C)CN(C[C@@H](O)[C@H](Cc1ccccc1)NC(=O)OCc1cncs1)C(=O)c1cccnc1 [Compound C13] | 64 | > 100 | 8 | 81 | 84 | 94 | > 100 | 95 | 69 | 67
7 | CC(C)CN(C[C@@H](O)[C@H](Cc1ccccc1)NC(=O)OCc1cncs1)C(=O)c1ccc[nH]1 [Compound C14] | 67 | 89.1 | 56 | 84 | 80 | 91 | 79.4 | 98 | 24 | 87
8 | CC(C)CN(C[C@@H](O)[C@H](Cc1ccccc1)NC(=O)OCc1cncs1)C(=O)c1cccc(Cl)c1 [Compound C15] | 41 | 42.7 | 51 | 75 | 80 | 92 | 50.1 | 97 | 57 | 92
9 | CC(C)CN(C[C@@H](O)[C@H](Cc1ccccc1)NC(=O)OCc1cncs1)C(=O)c1ccc(Cl)cc1 [Compound C16] | 43 | 40.7 | 50 | 71 | 82 | 92 | 38.9 | 97 | 59 | 90
